Source: ChEMBL document CHEMBL1140393, “Neamine dimers targeting the HIV-1 TAR RNA” (Bioorg Med Chem Lett, 2005)

Columns and labels:
Parameters in all cases: species or system Homo sapiens
[1] = Effect towards transactivation responsive RNA-binding protein at pH 7.5, (10 mM Tris-HCl, 150 mM KCl)by using fluorimetric competition assay
[2] = Effect against transactivation responsive RNA-binding protein at pH 7.4 (50 mM Tris-HCl […]) in fluorimetric competition assay
[3] = Effect against trans-activation responsive RNA-binding protein at pH 7.4 (50 mM Tris-HCl and 20 mM KCl) in fluorimetric competition assay

Row | Compound | IC50 [1] | IC50 [2] | IC50 [3]
1 | CN(CC(=O)NCCCCCCO[C@H]1[C@H](O)[C@H](N)[C@@H](O[C@H]2[C@H](O)[C@H](O)[C@H](N)C[C@H]2N)O[C@H]1CN)CC(=O)NCCCCCCO[C@H]1[C@H](O)[C@H](N)[C@@H](O[C@H]2[C@H](O)[C@H](O)[C@H](N)C[C@H]2N)O[C@H]1CN | 50 nM | 330 nM | 
2 | NCC1OC(OC2C(N)CC(N)C(O)C2O)C(N)C(O)C1OCCCCCCNC(=O)CCC(=O)NCCCCCCOC1C(CN)OC(OC2C(N)CC(N)C(O)C2O)C(N)C1O (configuration not stated) | 480 nM | 150 nM | 
3 | NC[C@H]1O[C@H](O[C@H]2[C@H](O)[C@@H](O)[C@H](N)C[C@@H]2N)[C@H](N)[C@@H](O)[C@@H]1O [NEAMINE] | 40000 nM |  | 10000 nM

Further molecules by falling IC50 [1], results first:

Row | IC50 [1] | IC50 [2] | Compound | IC50 [3]
4 | 35000 nM | 7000 nM | NC[C@@H]1O[C@H](O[C@H]2[C@@H](O)[C@H](O[C@@H]3[C@@H](O)[C@H](N)C[C@H](N)[C@H]3O[C@H]3O[C@H](CN)[C@@H](O)[C@H](O)[C@H]3N)O[C@@H]2CO)[C@H](N)[C@@H](O)[C@@H]1O [FRAMYCETIN] | 
5 | 1000 nM | 150 nM | CN(CC(=O)NCCCCCCO[C@@H]1[C@H](O)[C@H](N)C[C@@H](N)[C@H]1O[C@H]1O[C@@H](CN)[C@@H](O)[C@H](O)[C@@H]1N)CC(=O)NCCCCCCO[C@@H]1[C@H](O)[C@H](N)C[C@@H](N)[C@H]1O[C@H]1O[C@@H](CN)[C@@H](O)[C@H](O)[C@@H]1N | 
6 | 900 nM | 400 nM | NCC1OC(OC2C(N)CC(N)C(O)C2OCCCCCCNC(=O)CCC(=O)NCCCCCCOC2C(O)C(N)CC(N)C2OC2OC(CN)C(O)C(O)C2N)C(N)C(O)C1O (configuration not stated) | 
